Numbers after ± are expanded uncertainties.
Assays:
[1] = 293.2 K; 101.33 kPa; Liquid; Vibrating tube method
[2] = refractive index (Na D-line) (dimensionless); settings: 293.2 K; 101.33 kPa; Liquid; Standard Abbe refractometry

Compound | mass density [1] | refractive index [2]
CCCCO [butan-1-ol] | 809.33 ± 0.26 kg/m3 | 1.3983 ± 0.0005
O=CO [formic acid] | 1219.5 ± 0.4 kg/m3 | 1.3711 ± 0.0005
CCCCCCCO [heptan-1-ol] | 821.63 ± 0.26 kg/m3 | 1.4244 ± 0.0005
CCCCCCO [hexan-1-ol] | 818.21 ± 0.26 kg/m3 | 1.4181 ± 0.0005
CCCCCO [pentan-1-ol] | 813.98 ± 0.26 kg/m3 | 1.41 ± 0.0005
O [water] |  | 1.3328 ± 0.0005

From the NIST ThermoML archive (doi:10.1016/j.fluid.2013.06.006)
